We go through 5 compounds from patent US12139742B2, “Devices, systems, and methods for preparing a standardized inoculum for antimicrobial susceptibility testing” (Avails Medical, Inc., priority 2020, dated 2024).

For test [1], the system named is 23 different positive blood culture (PBC) samples comprising seven different species of bacteria. Briefly: VITEK 2 GN81 automated AST of 0.5 McFarland inocula (present method vs traditional subculture). The test is classed as cell-based. The conditions noted are these: for # I: number of isolates deemed intermediate (I); for # R: number of isolates deemed resistant (R); for # S: number of isolates deemed susceptible (S). Here is the method:
(§1) Both the present method 1700 and traditional microbial subculturing techniques were used to prepare standardized 0.5 McFarland inocula for AST using Kirby-Bauer disk diffusion (see Table 1) and the automated VITEK2 GN81 AST platform (see Table 2).
(§2) Two sets of standardized 0.5 McFarland inocula were prepared from 23 different positive blood culture (PBC) samples comprising seven different species of bacteria. The 23 PBC samples included six samples of Escherichia coli (ECo), two samples of Enterobacter cloacae (ECl), three samples of Klebsiella pneumoniae (KPn), four samples of Klebsiella oxytoca (KOx), two samples of Citrobacter freundii (CFr), four samples of Serratia marcescens (SMa), and two samples of Klebsiella aerogenes (KAe).
(§3) The first set was prepared using the presently disclosed method 1700 (sample preparation time: between 60 minutes and 180 minutes) and the second set was prepared using traditional microbial subculturing techniques (sample preparation time: between 18 hours to 24 hours). The testing was conducted using the automated VITEK®2 GN81 AST platform (see Table 1) and manual Kirby-Bauer disk diffusion (see Table 2).

For test [2] the test system is unchanged. Briefly: Kirby-Bauer disk diffusion AST of 0.5 McFarland inocula (present method vs traditional subculture). The test is classed as cell-based. The conditions noted are these: for # I: number of isolates deemed intermediate (I); for # R: number of isolates deemed resistant (R); for # S: number of isolates deemed susceptible (S).
From the text: The standardized inoculum 1726 (e.g., the 0.5 McFarland inoculum) can then be used directly for antimicrobial susceptibility testing using manual disk diffusion or diluted further for automated AST platforms. For example, the standardized inoculum 1726 prepared using the method 1700 and system 1702 disclosed herein can be subjected to manual Kirby-Bauer disk diffusion AST or an automated AST platform such as the VITEK®2 platform.
as §1, §2, §3
In total, 296 minimum inhibitory concentrations (MICs) from the VITEK®2 GN81 platform and 224 zone sizes on disk diffusion were evaluated.
A general note: Agar diffusion results depend on both activity and mobility in agar.

Test [3] has as its system KOx harboring the KPC-3 gene. Briefly: Disk diffusion AST, single isolate with major error. In kind it is cell-based, Klebsiella oxytoca. Here is the method: as §3
[4] abbreviates: inoculum prepared using the present method 1700.

Gentamicin: in test [1], the “# I” value amounted to 1, the “# R” value is 2 and the “# S” value stood at 20. In test [2], the “# I” value came out at 1, the “# R” value is 2 and the “# S” value worked out at 20.
With Piperacillin-tazobactam, in test [1], the “# I” value amounted to 1, the “# R” value was found to be 3 and the “# S” value came out at 5. In test [2], the “# I” value amounted to 1, the “# R” value came to 3 and the “# S” value is recorded as 14.
In the case of Trimethoprim-sulfamethoxazole, in test [1], the “# I” value is listed as 0, the “# R” value is reported as 6 and the “# S” value is reported as 11.
As for Amoxicillin-Clavulanic acid, in test [1], the “# I” value worked out at 1, the “# R” value was found to be 6 and the “# S” value is 6. For the same compound, in test [2], the “# I” value was 0, the “# R” value is given as 7 and the “# S” value is given as 6.
Turning to `C[C@@H](O)[C@H]1C(=O)N2C(C(=O)O)=C(S[C@@H]3CN[C@H](C(=O)N(C)C)C3)[C@H](C)[C@H]12` [Meropenem], in test [3] (control 0.5 McFarland inoculum), the susceptibility category result was “susceptible” and the zone size is 23 mm. For the same compound, in test [3] (setting [4]), the susceptibility category result was “resistant” and the zone size came to 19 mm.
